Data from patent US20070092877A1, “Bcrm-1 genes and uses thereof” (priority 2003, published 2007).

Test system: 293T cells stably transfected with a BCRM-1 expression vector
Assay: clonogenic assays of stably transfected 293T cells with cisplatin
Format: cell-based
Details: clone with the highest level of BCRM-1 vs control vector transfectants, FIG. 3
From the text: To investigate whether BCRM-1 could render cells resistant to DNA-damaging agents, 293T cells were stably transfected with a BCRM-1 expression vector (FIG. 3). The BCRM-1 full length EcoRI-XhoI fragment was cloned into the EcoRI-XhoI sites of the pcDNA6/Bsd vector (Clontech, Palo Alto, Calif.). 293T cells were transfected with the BCRM/bsd vector or an empty pcDNA/bsd vector, respectively, by the method described in Example 8 above; Stable transfectants were selected through serial passages in the presence of blasticidin 10 μg/ml (Clontech, Palo Alto, Calif.). These blasticidin-resistant clones were isolated and repicked using the same selection procedure. One of these clones expressed the highest level of BCRM-1 by Western blotting. It was further tested in clonogenic assays and found to be 5-10 times more resistant to DNA damaging agent cisplatin than 293T cells stably transfected with the control vector (FIG. 3).

Compound: N.N.[Cl][Pt][Cl] [cisplatin]
- resistance to cisplatin of the BCRM-1 expressing clone relative to 293T cells stably transfected with the control vector: 5-10 times
